# In patent US11419868B2, “Low dose product and method for treating diarrhea” (MAREGADE RX, LLC, priority 2016, dated 2022):
# What was measured:
# rat colonic mucosa [1] = test: Forskolin-induced short-circuit current across rat colonic mucosa; type: cell-based; conditions: 6 μM famotidine, 3 μM cetirizine, each alone; FIG. 4
# Source text: (§1) Data are presented as mean±standard error of mean (SEM). […] 2014 December; 63(12):1873-82).
# (§2) These secretogogues were selected because PGE2 mediates the occurrence of watery diarrhea in response to a low-grade inflammatory insult and forakolin because it selectively activates all forms of cAMP-mediated intestinal secretion.
# [2] = test system: stress-induced visceral hypersensitivity; test: Chronic water avoidance stress (WAS) model, visceromotor response to colorectal distension; conditions: oral twice daily 3.5 days
# rat colonic mucosa [3] = test: PGE2-induced short-circuit current across rat colonic mucosa; type: cell-based; conditions: 6 μM famotidine, 3 μM cetirizine, each alone; FIG. 3
# Source text: as §1, §2
# rat colonic mucosa [4] = test: Electrical field stimulation-induced short-circuit current across rat colonic mucosa in Ussing chambers; type: cell-based; conditions: individually or combined; for effect on EFS-induced ΔISC: famotidine 10 μM, cetirizine 5 μM, EFS 16 Hz, FIG. 1; for inhibition of EFS-induced ΔISC: famotidine 200 μM, cetirizine 100 μM, FIG. 2
# Source text: as §1
# colonic hypersensitivity = test: Three rat models of colonic hypersensitivity, overall statement and conversion to human equivalent doses; conditions: 0.25 mg/kg cetirizine, 0.6 mg/kg famotidine, two times per day p.o.
# [5] = test system: TNBS-induced, post-inflammatory colonic hypersensitivity; test: TNBS-induced post-inflammatory colonic hypersensitivity model, VMR to CRD; conditions: 0.25 mg/kg cetirizine, 0.6 mg/kg famotidine, each alone, oral twice daily 3.5 days; FIG. 8
# [6] = test system: acetic acid-induced colonic hypersensitivity; conditions: famotidine 0.6 mg/kg, cetirizine 0.25 mg/kg, each alone, oral twice daily 3.5 days; FIG. 7
# [7] = famotidine 0.6 mg/kg, cetirizine 0.25 mg/kg, each alone, FIG. 6
# [8] = lowest doses: famotidine 0.3 mg/kg, cetirizine 0.15 mg/kg, alone or in combination, FIG. 5
SMILES,effect on forskolin-induced changes in ISC (rat colonic mucosa [1]),"effect on colonic hypersensitivity [2, 7]","effect on colonic hypersensitivity [2, 8]",effect on PGE2-induced changes in ISC (rat colonic mucosa [3]),effect on EFS-induced ΔISC (rat colonic mucosa [4]),inhibition of EFS-induced ΔISC (rat colonic mucosa [4]),inhibitory effect on colonic hypersensitivity in all three rat models (colonic hypersensitivity),effect on TNBS-induced colonic hypersensitivity [5],inhibition of acetic acid-induced colonic hypersensitivity [6]
O=C(O)COCCN1CCN(C(c2ccccc2)c2ccc(Cl)cc2)CC1 (centres unmarked) [cetirizine],only minimally effective,neither drug alone had an effect,had no effect on colonic hypersensitivity,neither drug alone was effective,had no effect,modest changes in ISC,did not result in sufficient inhibition,Neither cetirizine alone nor famotidine alone exhibited any effect,
NC(N)=Nc1nc(CSCCC(N)=NS(N)(=O)=O)cs1 [famotidine],only minimally effective,neither drug alone had an effect,had no effect on colonic hypersensitivity,neither drug alone was effective,had no effect,modest changes in ISC,did not result in sufficient inhibition,Neither cetirizine alone nor famotidine alone exhibited any effect,"not either drug alone, induced a significant inhibition"
